Assay results taken from patent publication US3947411A, “Novel 1-aryl-2-arylalkyl-3-or-4-[4'-(substituted-alkyl)piperazino-1']butanols- 2-or-butenes-1, and methods of manufacture thereof” (Warner-Lambert Company, priority 1972, dated 1976).
In brackets after ≈: the same amount, converted by molar mass.

Columns and labels:
[1] = test system: Aspergillus niger; assay: Agar well inhibition zone test against fungi, Aspergillus niger (Table II); details: quantity per well giving inhibition zone (500, 50, 5 μg tested); Sabouraud agar, 28°, 48 hours
[2] = test system: Staphylococcus aureus; assay: Agar well inhibition zone test against bacteria, Staphylococcus aureus (Table III); details: quantity per well giving inhibition zone (500, 50, 5 μg tested); nutrient agar, 37°, 24 hours
Procedure: The efficacy of the compounds against bacteria was tested as follows:
The test organisms, in this case Staphylococcus aureus and Escherichia coli, were inoculated on nutrient agar as described in Example 12, wells were punched, and the solutions of the compounds were transferred to fill the wells. The quantity of compound in the wells amounted again to 500 μg, 50 μg and 5 μg.
After incubation a 37° for 24 hours the quantity of compound was determined at which an inhibition of the organism's growth, in the form of an inhibition zone around the corresponding well, occurred.

[3] = test system: Escherichia coli; assay: Agar well inhibition zone test against bacteria, Escherichia coli (Table III); details: quantity per well giving inhibition zone (500, 50, 5 μg tested); nutrient agar, 37°, 24 hours
[4] = Solubility in water; format: physicochemical; details: hydrochlorides or oxalates, read-out: solubilities (in water)
Method in brief: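 Water solubility given for the hydrochloride salts of most compounds and for the oxalate salts of a few.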

[5] = test system: C. albicans; assay: Minimum inhibitory concentration for fungi in presence of serum, C. albicans (Table VI); format: cell-based; details: Candida albicans; Sabouraud nutrient broth + 10% bovine serum, 28°C, 48 hours
[6] = test system: Mycobacterium tuberculosis II 37 RV (typus humanus); assay: Efficacy against Mycobacteria, Tb-broth dilution series (Table I); format: cell-based; details: 504 h, Dubos Tb-broth + 10% bovine serum, 21 days, read-out: Minimum Inhibitory Concentration
[7] = test system: Candida albicans; assay: Agar well inhibition zone test against fungi, Candida albicans (Table II); details: quantity per well giving inhibition zone (500, 50, 5 μg tested); Sabouraud agar, 28°, 48 hours
Procedure: The efficacy of the compounds against fungi was tested as follows:
The test organisms, in this case the blastomycete Candida albicans and the mold Aspergillus niger, were inoculated onto Sabouraud agar plates by pouring a photometrically adjusted standard suspension of organisms on the plate. After inoculation, wells with a diameter of 5.0 mm were punched in the agar, and filled with 50 ul of the compound solution mentioned before. The quantity of compound applied thus amounted to 500 μg, 50 μg and 5 μg. After incubation at 28° for 48 hours, the quantity of compound was determined at which an inhibition of the organism's growth, in form of an inhibition zone around the corresponding well, was present.

[8] = test system: A. niger; assay: Minimum inhibitory concentration for fungi, tube dilution, A. niger (Table IV); details: Aspergillus niger, 48 h, read-out: Minimum Inhibitory Concentration, A. niger
Procedure: (§1) A tube dilution series of the respective compound in Sabouraud nutrient broth, whose individual tubes contained concentrations of 1024 μg, 512 μg, 256 μg, 128 μg, 64 μg, 32 μg, 16 μg, 8 μg, 4 μg, 2 μg, 1.1 μg and 0.5 μg/ml, was prepared and inoculated with a photometrically standardized suspension of the test organisms or the spores thereof.

[9] = test system: Staph. aureus; assay: Minimum inhibitory concentration for bacteria, tube dilution, Staph. aureus (Table V); details: Staphylococcus aureus, 48 h, read-out: Minimum Inhibitory Concentration, Staph. aureus
Procedure: A tube dilution series of the respective compound in nutrient broth whose individual tubes contained concentrations of 1024 μg, 512 μg, 256 μg, 128 μg, 64 μg, 32 μg, 1 μg, 8 μg, 4 μg, 2 μg, 1.1 μg and 0.5 μg/ml was prepared and inoculated with a photometrically standardized suspension of the test organisms.

[10] = test system: A. niger; assay: Minimum inhibitory concentration for fungi in presence of serum, A. niger (Table VI); format: cell-based; details: Aspergillus niger; Sabouraud nutrient broth + 10% bovine serum, 28°C, 48 hours
[11] = test system: C. albicans; assay: Minimum inhibitory concentration for fungi, tube dilution, C. albicans (Table IV); details: Candida albicans, 48 h, read-out: Minimum Inhibitory Concentration, C. albicans
Procedure: as §1

## CC(N1CCNCC1)C(O)(Cc1ccccc1)Cc1ccccc1 (stereo not drawn) [L, 1-phenyl-2-benzyl-3-piperazino-butanol-2]
[1]
  Inhibition Area at μg, Asp. niger: 50 µg
[2]
  Inhibition Area at μg, Staph. aureus: 500 µg
[3]
  Inhibition Area at μg, E. coli: 500 µg
[4]
  solubility: 10 mg/mL (≈ 30800 µM)
[5]
  MIC: 512 µg/mL
[6]
  MIC: 500 µg/mL
[7]
  Inhibition Area at μg, Cand. albicans: 50 µg

## CC(N1CCN(CCN2CCOCC2)CC1)C(O)(Cc1ccccc1)Cc1ccccc1 (stereo not drawn) [V, 1-phenyl-2-benzyl-3-[4'-(β-morpholino-ethyl)-piperazino-1']-butanol-2]
[1]
  Inhibition Area at μg, Asp. niger: 50 µg
[2]
  Inhibition Area at μg, Staph. aureus: 50 µg
[8]
  MIC: 64 µg/mL (≈ 146 µM)
[9]
  MIC: 512 µg/mL (≈ 1170 µM)
[3]
  Inhibition Area at μg, E. coli: 500 µg
[10]
  MIC: 256 µg/mL
[4]
  solubility: 50 mg/mL (≈ 114000 µM)
[11]
  MIC: > 1020 µg/mL
[6]
  MIC: 100 µg/mL
[7]
  Inhibition Area at μg, Cand. albicans: 50 µg

## CC1CCCCN1CCN1CCN(C(C)C(O)(Cc2ccccc2)Cc2ccccc2)CC1 (stereo not drawn) [VII, 1-phenyl-2-benzyl-3-{4'-[β-(2"-methyl-piperidino)-ethyl]-piperazino-1'}-butanol-2]
[1]
  Inhibition Area at μg, Asp. niger: 500 µg
[2]
  Inhibition Area at μg, Staph. aureus: 500 µg
[3]
  Inhibition Area at μg, E. coli: > 500 µg
[4]
  solubility: 50 mg/mL (≈ 111000 µM)
[11]
  MIC: 32 µg/mL (≈ 71.2 µM)
[5]
  MIC: 32 µg/mL
[6]
  MIC: 10 µg/mL
[7]
  Inhibition Area at μg, Cand. albicans: 50 µg

## CC(N1CCN(CCCN2CCCCC2)CC1)C(O)(Cc1ccccc1)Cc1ccccc1 (stereo not drawn) [XIX, 1-phenyl-2-benzyl-3-[4'-(γ-piperidinopropyl)-piperazino-1']-butanol-2]
[1]
  Inhibition Area at μg, Asp. niger: 5 µg
[2]
  Inhibition Area at μg, Staph. aureus: 500 µg
[8]
  MIC: 32 µg/mL (≈ 71.2 µM)
[3]
  Inhibition Area at μg, E. coli: 500 µg
[10]
  MIC: 32 µg/mL
[4]
  solubility: 100 mg/mL (≈ 222000 µM)
[11]
  MIC: 16 µg/mL (≈ 35.6 µM)
[5]
  MIC: 16 µg/mL
[6]
  MIC: 100 µg/mL
[7]
  Inhibition Area at μg, Cand. albicans: 5 µg

## CC(N1CCN(CCN2CCCC2)CC1)C(O)(Cc1ccccc1)Cc1ccccc1 (stereo not drawn) [III, 1-phenyl-2-benzyl-3-[4'-(β-pyrrolidino-ethyl)-piperazino-1']-butanol-2]
[1]
  Inhibition Area at μg, Asp. niger: 50 µg
[2]
  Inhibition Area at μg, Staph. aureus: 50 µg
[8]
  MIC: 64 µg/mL (≈ 152 µM)
[9]
  MIC: 512 µg/mL (≈ 1210 µM)
[3]
  Inhibition Area at μg, E. coli: 500 µg
[10]
  MIC: 128 µg/mL
[4]
  solubility: 50 mg/mL (≈ 119000 µM)
[11]
  MIC: 32 µg/mL (≈ 75.9 µM)
[5]
  MIC: 64 µg/mL
[6]
  MIC: 50 µg/mL
[7]
  Inhibition Area at μg, Cand. albicans: 50 µg

## CCN(CC)CCN1CCN(C(C)C(=Cc2ccccc2)Cc2ccccc2)CC1 (stereo not drawn) [XXVII, 1-phenyl-2-benzyl-3-[4'-(β-diethylamino-ethyl)-piperazino-1']-butene-1]
[1]
  Inhibition Area at μg, Asp. niger: 5 µg
[2]
  Inhibition Area at μg, Staph. aureus: 50 µg
[8]
  MIC: 128 µg/mL (≈ 316 µM)
[9]
  MIC: 256 µg/mL (≈ 631 µM)
[3]
  Inhibition Area at μg, E. coli: 500 µg
[4]
  solubility: 100 mg/mL (≈ 247000 µM)
[11]
  MIC: 256 µg/mL (≈ 631 µM)
[6]
  MIC: 10 µg/mL
[7]
  Inhibition Area at μg, Cand. albicans: 5 µg

## CC(N1CCN(CCN2CCN(Cc3ccccc3)CC2)CC1)C(O)(Cc1ccccc1)Cc1ccccc1 (stereo not drawn) [XII, 1-phenyl-2-benzyl-3-{4'-[β-(4"-benzyl-piperazino-1")-ethyl]-piperazino-1'}-butanol-2]
[1]
  Inhibition Area at μg, Asp. niger: 50 µg
[2]
  Inhibition Area at μg, Staph. aureus: 50 µg
[8]
  MIC: 16 µg/mL (≈ 30.4 µM)
[9]
  MIC: 64 µg/mL (≈ 121 µM)
[3]
  Inhibition Area at μg, E. coli: 500 µg
[10]
  MIC: > 1020 µg/mL
[4]
  solubility: 100 mg/mL (≈ 190000 µM)
[11]
  MIC: 64 µg/mL (≈ 121 µM)
[5]
  MIC: 256 µg/mL
[6]
  MIC: 100 µg/mL
[7]
  Inhibition Area at μg, Cand. albicans: 5 µg

## CC(N1CCN(CCN2CCCCC2)CC1)C(O)(Cc1ccccc1)Cc1ccccc1 (stereo not drawn) [IV, 1-phenyl-2-benzyl-3-[4'-(β-piperidino-ethyl)-piperazino-1']-butanol-2]
[1]
  Inhibition Area at μg, Asp. niger: 500 µg
[2]
  Inhibition Area at μg, Staph. aureus: 500 µg
[3]
  Inhibition Area at μg, E. coli: > 500 µg
[4]
  solubility: 50 mg/mL (≈ 115000 µM)
[11]
  MIC: 32 µg/mL (≈ 73.5 µM)
[5]
  MIC: 32 µg/mL
[6]
  MIC: 100 µg/mL
[7]
  Inhibition Area at μg, Cand. albicans: 50 µg

## CC(C(=Cc1ccccc1)Cc1ccccc1)N1CCN(CCN2CCCCC2)CC1 (stereo not drawn) [XXX, 1-phenyl-2-benzyl-3-[4'-(β-piperidino-ethyl)-piperazino-1']-butene-1]
[1]
  Inhibition Area at μg, Asp. niger: 5 µg
[2]
  Inhibition Area at μg, Staph. aureus: 50 µg
[8]
  MIC: 32 µg/mL (≈ 76.6 µM)
[9]
  MIC: 128 µg/mL (≈ 306 µM)
[3]
  Inhibition Area at μg, E. coli: 500 µg
[10]
  MIC: 32 µg/mL
[4]
  solubility: 10 mg/mL (≈ 23900 µM)
[11]
  MIC: 16 µg/mL (≈ 38.3 µM)
[5]
  MIC: 256 µg/mL
[6]
  MIC: 50 µg/mL
[7]
  Inhibition Area at μg, Cand. albicans: 50 µg

## CC1CCN(CCN2CCN(C(C)C(O)(Cc3ccccc3)Cc3ccccc3)CC2)CC1 (stereo not drawn) [IX, 1-phenyl-2-benzyl-3-{4'-[β-(4"-methyl-piperidino)-ethyl]-piperazino-1'}-butanol-2]
[1]
  Inhibition Area at μg, Asp. niger: 50 µg
[2]
  Inhibition Area at μg, Staph. aureus: 500 µg
[8]
  MIC: 128 µg/mL (≈ 285 µM)
[3]
  Inhibition Area at μg, E. coli: 500 µg
[4]
  solubility: 50 mg/mL (≈ 111000 µM)
[11]
  MIC: 16 µg/mL (≈ 35.6 µM)
[5]
  MIC: 32 µg/mL
[6]
  MIC: 100 µg/mL
[7]
  Inhibition Area at μg, Cand. albicans: 50 µg

## CC(N1CCN(Cc2ccccn2)CC1)C(O)(Cc1ccccc1)Cc1ccccc1 (stereo not drawn) [XXII, 1-phenyl-2-benzyl-3-[4'-(2"-pyridylmethyl)-piperazino-1']-butanol-2]
[1]
  Inhibition Area at μg, Asp. niger: 500 µg
[2]
  Inhibition Area at μg, Staph. aureus: 50 µg
[9]
  MIC: > 1020 µg/mL
[3]
  Inhibition Area at μg, E. coli: > 500 µg
[4]
  solubility: 50 mg/mL (≈ 120000 µM)
[5]
  MIC: 512 µg/mL
[6]
  MIC: 500 µg/mL
[7]
  Inhibition Area at μg, Cand. albicans: 500 µg

## CCC(N1CCN(C)CC1)C(O)(Cc1ccccc1)Cc1ccccc1 (stereo not drawn) [LVIII, 1-phenyl-2-benzyl-3-(4'-methyl-piperazino-1')-pentanol-2]
[1]
  Inhibition Area at μg, Asp. niger: 50 µg
[2]
  Inhibition Area at μg, Staph. aureus: 50 µg
[8]
  MIC: 128 µg/mL (≈ 363 µM)
[9]
  MIC: 256 µg/mL (≈ 726 µM)
[3]
  Inhibition Area at μg, E. coli: 500 µg
[4]
  solubility: < 10 mg/mL
[11]
  MIC: 256 µg/mL (≈ 726 µM)
[6]
  MIC: 100 µg/mL
[7]
  Inhibition Area at μg, Cand. albicans: 50 µg

## CC1CCCCN1CCN1CCN(C(C)C(=Cc2ccccc2)Cc2ccccc2)CC1 (stereo not drawn) [XXXIII, 1-phenyl-2-benzyl-3-[4'-(β-2"-methyl-piperidinoethyl)-piperazino-1']-butene-1]
[1]
  Inhibition Area at μg, Asp. niger: 50 µg
[2]
  Inhibition Area at μg, Staph. aureus: 50 µg
[8]
  MIC: 256 µg/mL (≈ 593 µM)
[9]
  MIC: 128 µg/mL (≈ 297 µM)
[3]
  Inhibition Area at μg, E. coli: 500 µg
[4]
  solubility: 100 mg/mL (≈ 232000 µM)
[11]
  MIC: 256 µg/mL (≈ 593 µM)
[6]
  MIC: 20 µg/mL
[7]
  Inhibition Area at μg, Cand. albicans: 5 µg

## CC1CCCN(CCN2CCN(C(C)C(O)(Cc3ccccc3)Cc3ccccc3)CC2)C1 (stereo not drawn) [VIII, 1-phenyl-2-benzyl-3-{4'-[β-(3"-methyl-piperidino)-ethyl]-piperazino-1'}butanol-2]
[1]
  Inhibition Area at μg, Asp. niger: 500 µg
[2]
  Inhibition Area at μg, Staph. aureus: 50 µg
[9]
  MIC: 512 µg/mL (≈ 1140 µM)
[3]
  Inhibition Area at μg, E. coli: > 500 µg
[4]
  solubility: 50 mg/mL (≈ 111000 µM)
[11]
  MIC: 16 µg/mL (≈ 35.6 µM)
[5]
  MIC: 16 µg/mL
[6]
  MIC: 100 µg/mL
[7]
  Inhibition Area at μg, Cand. albicans: 50 µg
